Measurements as given in the NIST ThermoML archive (doi:10.1016/j.jct.2012.03.020).

Assays:
[1] = refractive index (Na D-line) (dimensionless); mn = molality of the nth substance listed, in mol/kg; details: 101 kPa, Liquid, Standard Abbe refractometry
[2] = mn = molality of the nth substance listed, in mol/kg; details: 101 kPa, Liquid, Pycnometric method

Cc1ccc(C(=O)N(O)c2ccccc2)cc1[N+](=O)[O-] [N-hydroxy-4-methyl-3-nitro-N-phenylbenzamide] + CN(C)C=O
Details | mass density, 298.15 K [kg/m3] | mass density, 303.15 K [kg/m3] | mass density, 308.15 K [kg/m3] | mass density, 313.15 K [kg/m3] | refractive index, 298.15 K | refractive index, 303.15 K | refractive index, 308.15 K | refractive index, 313.15 K
[1], m1 = 0.0184 | – | – | – | – | 1.4391 | 1.435 | 1.432 | 1.4299
[1], m1 = 0.0368 | – | – | – | – | 1.4406 | 1.437 | 1.4343 | 1.432
[1], m1 = 0.0551 | – | – | – | – | 1.442 | 1.439 | 1.436 | 1.434
[1], m1 = 0.0735 | – | – | – | – | 1.444 | 1.441 | 1.438 | 1.4354
[1], m1 = 0.0919 | – | – | – | – | 1.447 | 1.4441 | 1.44 | 1.437
[1], m1 = 0.1103 | – | – | – | – | 1.4483 | 1.4455 | 1.442 | 1.439
[1], m1 = 0.1286 | – | – | – | – | 1.4496 | 1.4466 | 1.443 | 1.441
[1], m1 = 0.147 | – | – | – | – | 1.452 | 1.448 | 1.446 | 1.4429
[1], m1 = 0.1654 | – | – | – | – | 1.4535 | 1.45 | 1.448 | 1.444
[1], m1 = 0.1838 | – | – | – | – | 1.455 | 1.452 | 1.4494 | 1.445
[2], m1 = 0.0184 | 947.8 | 942.4 | 938.4 | 933.1 | – | – | – | –
[2], m1 = 0.0368 | 950.2 | 944.9 | 941 | 935.8 | – | – | – | –
[2], m1 = 0.0551 | 952.6 | 947.4 | 943.5 | 938.4 | – | – | – | –
[2], m1 = 0.0735 | 954.8 | 949.7 | 945.9 | 940.9 | – | – | – | –
[2], m1 = 0.0919 | 957 | 952 | 948.2 | 943.3 | – | – | – | –
[2], m1 = 0.1103 | 959.1 | 954.2 | 950.4 | 945.7 | – | – | – | –
[2], m1 = 0.1286 | 961.1 | 956.3 | 952.6 | 947.9 | – | – | – | –
[2], m1 = 0.147 | 963.1 | 958.4 | 954.7 | 950.1 | – | – | – | –
[2], m1 = 0.1654 | 965 | 960.4 | 956.7 | 952.2 | – | – | – | –
[2], m1 = 0.1838 | 966.9 | 962.3 | 958.7 | 954.3 | – | – | – | –
